Earlier results on 1 compound are cited in patent US11241426B2, “Aqueous composition for ophthalmic or nasal administration” (NITTO MEDIC CO., LTD., priority 2017, dated 2022).

Molecules are shown by their SMILES.

This data set concerns the target human H1 receptor (Homo sapiens, UniProt P35367).

Sequence of human H1 receptor (P35367 whole entry): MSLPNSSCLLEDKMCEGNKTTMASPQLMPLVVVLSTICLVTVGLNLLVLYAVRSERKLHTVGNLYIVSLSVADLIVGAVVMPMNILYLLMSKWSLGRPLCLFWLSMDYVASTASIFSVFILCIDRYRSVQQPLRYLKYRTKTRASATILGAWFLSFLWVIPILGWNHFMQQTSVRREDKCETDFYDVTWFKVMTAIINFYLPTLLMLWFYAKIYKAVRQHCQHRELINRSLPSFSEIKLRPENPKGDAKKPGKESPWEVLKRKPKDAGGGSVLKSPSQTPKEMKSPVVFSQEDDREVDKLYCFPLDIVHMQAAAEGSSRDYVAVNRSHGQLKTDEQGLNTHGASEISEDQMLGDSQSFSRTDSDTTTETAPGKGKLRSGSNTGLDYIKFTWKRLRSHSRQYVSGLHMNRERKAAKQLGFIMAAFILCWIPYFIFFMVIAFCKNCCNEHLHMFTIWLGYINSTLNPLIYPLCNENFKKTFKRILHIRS

Turning to `O=C(O)COCCN1CCN([C@H](c2ccccc2)c2ccc(Cl)cc2)CC1` [Levocetirizine], the “affinity for the human H1 receptor, fold higher than that of cetirizine” value (relative to cetirizine) was “about 2 fold”. Further, the “affinity for the human H1 receptor, fold higher than that of the S-enantiomer, dextrocetirizine” value (relative to dextrocetirizine) is given as “about 30 fold”.
